Reference: US5496808A (priority 1991, dated 1996)
Values after ≈ are worked out from the molar mass of the structure shown. Read-outs that look alike come from different tables or passages of the source.

Columns and labels:
Ascitic P388 Leukemia = assay: Antitumor activity "in vivo" against ascitic P388 leukemia, sensitive to Doxorubicin; set-up: species or system murine
Description: ^(3) 10^6 cell/mouse were injected i.p. on day 0.
(§1) ^(4) Compounds were suspended in Tween 80 10% and injected i.p. one
(§2) day after tumor transplantation.
(§3) ^(5) Median survival time of treated mice/Median survival time of
(§4) ^(6) No. of toxic deaths/total No. of mice.

[1] = test system: LoVo (colon adenocarcinama); assay: cells; type: cell-based, human; settings: for IC50: Homo sapiens, read-out: Cytotoxicity IC50 LoVo
Description: (§5) Colony assay: 4 hr treatment
(§6) ^(1) IC50 = concentration inhibiting 50% of colony formation

[2] = test system: Disseminated P388/DX Johnson Leukemia; assay: Antitumor activity "in vivo" against disseminated P388/DX Johnson leukemia, resistant to Doxorubicin; set-up: species or system murine
Description: ^(7) 10^5 cell/mouse were injected i.v. on day 0.
as §1, §2, §3, §4

[3] = test system: LoVo/DX (colon adenocarcinoma resistant to Doxorubicin); assay: cells; settings: for IC50: Homo sapiens, 4 h, read-out: Cytotoxicity IC50 LoVo/DX
Description: as §5, §6
^(2) R.I. = Resistance Index = (IC50 LoVo/DX)(IC50 LoVo)

[4] = 10.0 mg/kg i.p. one day after tumor transplantation
[5] = 15.0 mg/kg i.p. one day after tumor transplantation
[6] = 22.0 mg/kg i.p. one day after tumor transplantation
[7] = 1.0 mg/kg i.p. one day after tumor transplantation
[8] = 1.4 mg/kg i.p. one day after tumor transplantation
[9] = 2.0 mg/kg i.p. one day after tumor transplantation
[10] = 2.8 mg/kg i.p. one day after tumor transplantation
[11] = 1.2 mg/kg i.p. one day after tumor transplantation
[12] = 1.6 mg/kg i.p. one day after tumor transplantation
[13] = 2.1 mg/kg i.p. one day after tumor transplantation
[14] = 3.7 mg/kg i.p. one day after tumor transplantation
[15] = 0.33 mg/kg i.p. one day after tumor transplantation
[16] = 0.5 mg/kg i.p. one day after tumor transplantation
[17] = 0.75 mg/kg i.p. one day after tumor transplantation
[18] = 1.9 mg/kg i.p. one day after tumor transplantation
[19] = 2.5 mg/kg i.p. one day after tumor transplantation

## COc1cccc2c1C(=O)c1c(O)c3c(c(O)c1C2=O)C[C@@](O)(C(=O)CO)C[C@@H]3O[C@H]1C[C@H](N)[C@H](O)[C@H](C)O1 [Doxorubicin, doxorubicin]
Ascitic P388 Leukemia; [4]
  T/C (median survival time of treated mice/controls × 100): 299%
  TOX: 0/10
Ascitic P388 Leukemia; [5]
  T/C (median survival time of treated mice/controls × 100): 90%
  TOX: 3/6
[1]; colony assay: 4 hr treatment
  IC50: 0.0825 µg/mL (≈ 0.152 µM)
[2]; 16.9 mg/kg i.p. one day after tumor transplantation
  TOX: 0/6
[2]; [6]
  T/C (median survival time of treated mice/controls × 100): 94%
  TOX: 3/6
[3]; LoVo/DX
  IC50: 4.98 µg/mL (≈ 9.15 µM)

## CC(=O)[C@]1(O)Cc2c(O)c3c(c(O)c2[C@@H](O[C@H]2C[C@H](N(CCCl)CCCl)[C@H](OS(C)(=O)=O)[C@H](C)O2)C1)C(=O)c1ccccc1C3=O [compound 1h, 4-demethoxy-4'-O-methansulfonyl-N,N-bis(2-chloroethyl)daunorubicin]
Ascitic P388 Leukemia; [7]
  T/C (median survival time of treated mice/controls × 100): 184%
  TOX: 0/12
Ascitic P388 Leukemia; [8]
  T/C (median survival time of treated mice/controls × 100): 217%
  TOX: 0/6
Ascitic P388 Leukemia; [9]
  T/C (median survival time of treated mice/controls × 100): 233%
  TOX: 1/6
Ascitic P388 Leukemia; [10]
  T/C (median survival time of treated mice/controls × 100): 78%
  TOX: 6/6
[1]; colony assay: 4 hr treatment
  Cytotoxicity IC50 LoVo: 4.3 ng/mL
[2]; [11]
  T/C (median survival time of treated mice/controls × 100): 133%
  TOX: 0/6
[2]; [12]
  T/C (median survival time of treated mice/controls × 100): 144%
  TOX: 0/6
[2]; [13]
  T/C (median survival time of treated mice/controls × 100): 185%
  TOX: 0/6
[2]; [10]
  T/C (median survival time of treated mice/controls × 100): 220%
  TOX: 0/6
[2]; [14]
  T/C (median survival time of treated mice/controls × 100): 250%
  TOX: 0/6
[2]; P388 resistant to Doxorubicin (Johnson)
  activity when tested on resistant Leukemia: high activity
[3]; LoVo/DX versus LoVo, colony assay: 4 hr treatment
  R.I. = Resistance Index (IC50 LoVo/DX)(IC50 LoVo): 3.3
[3]; LoVo/DX, colony assay: 4 hr treatment
  Cytotoxicity IC50 LoVo/DX: 14.0 ng/mL
[3]; LoVo/DX, in comparison with 4-demethoxydaunorubicin (3b) and Doxorubicin (3c)
  activity on the doxorubicin-resistant cell line compared with 4-demethoxydaunorubicin and Doxorubicin: striking higher activity

## CC(=O)[C@]1(O)Cc2c(O)c3c(c(O)c2[C@@H](O[C@H]2C[C@H](N)[C@H](O)[C@H](C)O2)C1)C(=O)c1ccccc1C3=O [4-demethoxydaunorubicin]
Ascitic P388 Leukemia; [15]
  T/C (median survival time of treated mice/controls × 100): 142%
  TOX: 0/27
Ascitic P388 Leukemia; [16]
  T/C (median survival time of treated mice/controls × 100): 160%
  TOX: 0/28
Ascitic P388 Leukemia; [17]
  T/C (median survival time of treated mice/controls × 100): 163%
  TOX: 4/28
[1]; 4 h
  IC50: 0.004 µg/mL (≈ 0.00804 µM)
[2]; [18]
  T/C (median survival time of treated mice/controls × 100): 106%
  TOX: 0/10
[2]; [19]
  T/C (median survival time of treated mice/controls × 100): 89%
  TOX: 0/10
[3]; LoVo/DX
  IC50: 0.048 µg/mL (≈ 0.0965 µM)
[3]; human, lovo/dx vs lovo, 240 min
  R.I. = Resistance Index (IC50 LoVo/DX)(IC50 LoVo): 12.0
